# ChEMBL document CHEMBL3045910, “Novel molluscicide against Pomacea canaliculata based on quinoa (Chenopodium quinoa) saponins” (Crop Prot, 2008)
# Calls of active or inactive are those of the source. The calls are words filed in the database; no cut-off is given here.
# Experiments:
# [1] = Toxicity against Oreochromis sp. under laboratory conditions assessed as mortality at 54 ppm measured after 24 hr; assay type: organism-based; details: in vivo
# [2] = Toxicity against Oreochromis sp. under laboratory conditions assessed as mortality at 40 ppm measured after 24 hr; assay type: organism-based; details: in vivo
# Pomacea canaliculata [3] = assay: Molluscicidal activity against Pomacea canaliculata under laboratory conditions assessed as mortality at 33 ppm after 24 hr; assay type: functional
# Pomacea canaliculata [4] = assay: Molluscicidal activity against Pomacea canaliculata under laboratory conditions assessed as mortality at 40 ppm after 24 hr; assay type: functional
# Pomacea canaliculata [5] = assay: Molluscicidal activity against Pomacea canaliculata under laboratory conditions assessed as mortality at 23 ppm after 24 hr; assay type: functional
# Pomacea canaliculata [6] = assay: Molluscicidal activity against Pomacea canaliculata under laboratory conditions assessed as mortality at 17 ppm after 24 hr; assay type: functional
# [7] = Toxicity against Oreochromis sp. under laboratory conditions assessed as mortality at 33 ppm measured after 24 hr; assay type: organism-based; details: in vivo
# [8] = Toxicity against Oreochromis sp. under laboratory conditions assessed as mortality at 23 ppm measured after 24 hr; assay type: organism-based; details: in vivo
# [9] = Toxicity against Oreochromis sp. under laboratory conditions assessed as mortality at 10 ppm measured after 24 hr; assay type: organism-based; details: in vivo
# [10] = Toxicity against Oreochromis sp. under laboratory conditions assessed as mortality at 17 ppm measured after 24 hr; assay type: organism-based; details: in vivo
# [11] = Toxicity against Oreochromis sp. under laboratory conditions assessed as mortality at 5 ppm measured after 24 hr; assay type: organism-based; details: in vivo
# [12] = Toxicity against Carassius auratus under laboratory conditions assessed as mortality at 54 ppm measured after 96 hr; assay type: organism-based; details: in vivo
# [13] = Toxicity against Carassius auratus under laboratory conditions assessed as mortality at 33 ppm measured after 96 hr; assay type: organism-based; details: in vivo
# [14] = Toxicity against Carassius auratus under laboratory conditions assessed as mortality at 40 ppm measured after 96 hr; assay type: organism-based; details: in vivo
# [15] = Toxicity against Carassius auratus under laboratory conditions assessed as mortality at 23 ppm measured after 96 hr; assay type: organism-based; details: in vivo
# [16] = Toxicity against Carassius auratus under laboratory conditions assessed as mortality at 17 ppm measured after 96 hr; assay type: organism-based; details: in vivo
# [17] = Toxicity against Carassius auratus under laboratory conditions assessed as mortality at 10 ppm measured after 96 hr; assay type: organism-based; details: in vivo
# [18] = Toxicity against Carassius auratus under laboratory conditions assessed as mortality at 54 ppm measured after 48 hr; assay type: organism-based; details: in vivo
# [19] = Toxicity against Carassius auratus under laboratory conditions assessed as mortality at 5 ppm measured after 96 hr; assay type: organism-based; details: in vivo
# [20] = Toxicity against Carassius auratus under laboratory conditions assessed as mortality at 40 ppm measured after 48 hr; assay type: organism-based; details: in vivo
# [21] = Toxicity against Carassius auratus under laboratory conditions assessed as mortality at 33 ppm measured after 48 hr; assay type: organism-based; details: in vivo
# [22] = Toxicity against Carassius auratus under laboratory conditions assessed as mortality at 23 ppm measured after 48 hr; assay type: organism-based; details: in vivo
# [23] = Toxicity against Carassius auratus under laboratory conditions assessed as mortality at 17 ppm measured after 48 hr; assay type: organism-based; details: in vivo
# [24] = Toxicity against Carassius auratus under laboratory conditions assessed as mortality at 5 ppm measured after 48 hr; assay type: organism-based; details: in vivo
# [25] = Toxicity against Carassius auratus under laboratory conditions assessed as mortality at 10 ppm measured after 48 hr; assay type: organism-based; details: in vivo
# [26] = Toxicity against Carassius auratus under laboratory conditions assessed as mortality at 54 ppm measured after 24 hr; assay type: organism-based; details: in vivo
# [27] = Toxicity against Carassius auratus under laboratory conditions assessed as mortality at 40 ppm measured after 24 hr; assay type: organism-based; details: in vivo
# [28] = Toxicity against Carassius auratus under laboratory conditions assessed as mortality at 33 ppm measured after 24 hr; assay type: organism-based; details: in vivo
# [29] = Toxicity against Carassius auratus under laboratory conditions assessed as mortality at 17 ppm measured after 24 hr; assay type: organism-based; details: in vivo
# [30] = Toxicity against Carassius auratus under laboratory conditions assessed as mortality at 23 ppm measured after 24 hr; assay type: organism-based; details: in vivo
# [31] = Toxicity against Carassius auratus under laboratory conditions assessed as mortality at 10 ppm measured after 24 hr; assay type: organism-based; details: in vivo
# [32] = Toxicity against Carassius auratus under laboratory conditions assessed as mortality at 5 ppm measured after 24 hr; assay type: organism-based; details: in vivo
# Pomacea canaliculata [33] = assay: Molluscicidal activity against Pomacea canaliculata under laboratory conditions assessed as mortality at 54 ppm after 24 hr; assay type: functional
# Pomacea canaliculata [34] = assay: Molluscicidal activity against Pomacea canaliculata under laboratory conditions assessed as mortality at 10 ppm after 24 hr; assay type: functional
# Pomacea canaliculata [35] = assay: Molluscicidal activity against Pomacea canaliculata under laboratory conditions assessed as mortality at 5 ppm after 24 hr; assay type: functional
# Pomacea canaliculata [36] = assay: Molluscicidal activity against Pomacea canaliculata infested rice field assessed as mortality at 19 to 27 ppm after 24 hr; assay type: functional, organism-based
# [37] = Toxicity against Oreochromis sp. under laboratory conditions assessed as mortality at 54 ppm measured after 96 hr; assay type: organism-based; details: in vivo
# [38] = Toxicity against Oreochromis sp. under laboratory conditions assessed as mortality at 40 ppm measured after 96 hr; assay type: organism-based; details: in vivo
# [39] = Toxicity against Oreochromis sp. under laboratory conditions assessed as mortality at 33 ppm measured after 96 hr; assay type: organism-based; details: in vivo
# [40] = Toxicity against Oreochromis sp. under laboratory conditions assessed as mortality at 23 ppm measured after 96 hr; assay type: organism-based; details: in vivo
# [41] = Toxicity against Oreochromis sp. under laboratory conditions assessed as mortality at 10 ppm measured after 96 hr; assay type: organism-based; details: in vivo
# [42] = Toxicity against Oreochromis sp. under laboratory conditions assessed as mortality at 17 ppm measured after 96 hr; assay type: organism-based; details: in vivo
# [43] = Toxicity against Oreochromis sp. under laboratory conditions assessed as mortality at 5 ppm measured after 96 hr; assay type: organism-based; details: in vivo
compound,measurement,setting,value
CC1(C)CC[C@]2(C(=O)O)CC[C@]3(C)C(=CC[C@@H]4[C@@]5(C)CC[C@H](O)C(C)(C)[C@@H]5CC[C@]43C)[C@@H]2C1 [OLEANOLIC_ACID],"mortality at 24 h, 54 ppm",[1],0%
same,"mortality at 24 h, 40 ppm",[2],0%
same,mortality at 33 ppm,Pomacea canaliculata [3],100%
same,mortality at 40 ppm,Pomacea canaliculata [4],100%
same,mortality at 23 ppm,Pomacea canaliculata [5],75%
same,mortality at 17 ppm,Pomacea canaliculata [6],75%
same,"mortality at 24 h, 33 ppm",[7],0%
same,"mortality at 24 h, 23 ppm",[8],0%
same,"mortality at 24 h, 10 ppm",[9],0%
same,"mortality at 24 h, 17 ppm",[10],0%
same,"mortality at 24 h, 5 ppm",[11],0%
same,"mortality at 96 h, 54 ppm",[12],0%
same,"mortality at 96 h, 33 ppm",[13],0%
same,"mortality at 96 h, 40 ppm",[14],0%
same,"mortality at 96 h, 23 ppm",[15],0%
same,"mortality at 96 h, 17 ppm",[16],0%
same,"mortality at 96 h, 10 ppm",[17],0%
same,"mortality at 48 h, 54 ppm",[18],0%
same,"mortality at 96 h, 5 ppm",[19],0%
same,"mortality at 48 h, 40 ppm",[20],0%
same,"mortality at 48 h, 33 ppm",[21],0%
same,"mortality at 48 h, 23 ppm",[22],0%
same,"mortality at 48 h, 17 ppm",[23],0%
same,"mortality at 48 h, 5 ppm",[24],0%
same,"mortality at 48 h, 10 ppm",[25],0%
same,"mortality at 24 h, 54 ppm",[26],0%
same,"mortality at 24 h, 40 ppm",[27],0%
same,"mortality at 24 h, 33 ppm",[28],0%
same,"mortality at 24 h, 17 ppm",[29],0%
same,"mortality at 24 h, 23 ppm",[30],0%
same,"mortality at 24 h, 10 ppm",[31],0%
same,"mortality at 24 h, 5 ppm",[32],0%
same,mortality at 54 ppm,Pomacea canaliculata [33],100%
same,mortality at 10 ppm,Pomacea canaliculata [34],50%
same,mortality at 5 ppm,Pomacea canaliculata [35],0%
same,mortality,Pomacea canaliculata [36],Active
same,"mortality at 96 h, 54 ppm",[37],0%
same,"mortality at 96 h, 40 ppm",[38],0%
same,"mortality at 96 h, 33 ppm",[39],0%
same,"mortality at 96 h, 23 ppm",[40],0%
same,"mortality at 96 h, 10 ppm",[41],0%
same,"mortality at 96 h, 17 ppm",[42],0%
same,"mortality at 96 h, 5 ppm",[43],0%
CC1(C)CC[C@]2(C(=O)O)CC[C@]3(C)C(=CC[C@@H]4[C@@]5(C)CC[C@H](O)[C@@](C)(CO)[C@@H]5CC[C@]43C)[C@@H]2C1 [HEDERAGENIN],"mortality at 24 h, 54 ppm",[1],0%
same,"mortality at 24 h, 40 ppm",[2],0%
same,mortality at 33 ppm,Pomacea canaliculata [3],100%
same,mortality at 40 ppm,Pomacea canaliculata [4],100%
same,mortality at 23 ppm,Pomacea canaliculata [5],75%
same,mortality at 17 ppm,Pomacea canaliculata [6],75%
same,"mortality at 24 h, 33 ppm",[7],0%
same,"mortality at 24 h, 23 ppm",[8],0%
same,"mortality at 24 h, 10 ppm",[9],0%
same,"mortality at 24 h, 17 ppm",[10],0%
same,"mortality at 24 h, 5 ppm",[11],0%
same,"mortality at 96 h, 54 ppm",[12],0%
same,"mortality at 96 h, 33 ppm",[13],0%
same,"mortality at 96 h, 40 ppm",[14],0%
same,"mortality at 96 h, 23 ppm",[15],0%
same,"mortality at 96 h, 17 ppm",[16],0%
same,"mortality at 96 h, 10 ppm",[17],0%
same,"mortality at 48 h, 54 ppm",[18],0%
same,"mortality at 96 h, 5 ppm",[19],0%
same,"mortality at 48 h, 40 ppm",[20],0%
same,"mortality at 48 h, 33 ppm",[21],0%
same,"mortality at 48 h, 23 ppm",[22],0%
same,"mortality at 48 h, 17 ppm",[23],0%
same,"mortality at 48 h, 5 ppm",[24],0%
same,"mortality at 48 h, 10 ppm",[25],0%
same,"mortality at 24 h, 54 ppm",[26],0%
same,"mortality at 24 h, 40 ppm",[27],0%
same,"mortality at 24 h, 33 ppm",[28],0%
same,"mortality at 24 h, 17 ppm",[29],0%
same,"mortality at 24 h, 23 ppm",[30],0%
same,"mortality at 24 h, 10 ppm",[31],0%
same,"mortality at 24 h, 5 ppm",[32],0%
same,mortality at 54 ppm,Pomacea canaliculata [33],100%
same,mortality at 10 ppm,Pomacea canaliculata [34],50%
same,mortality at 5 ppm,Pomacea canaliculata [35],0%
same,mortality,Pomacea canaliculata [36],Active
same,"mortality at 96 h, 54 ppm",[37],0%
same,"mortality at 96 h, 40 ppm",[38],0%
same,"mortality at 96 h, 33 ppm",[39],0%
same,"mortality at 96 h, 23 ppm",[40],0%
same,"mortality at 96 h, 10 ppm",[41],0%
same,"mortality at 96 h, 17 ppm",[42],0%
same,"mortality at 96 h, 5 ppm",[43],0%
